Measurements reported in patent publication US12318452B2, “Degraders of WEE1 kinase” (DANA-FARBER CANCER INSTITUTE, INC., priority 2018, dated 2025).

Tested on: CRBN−/− MOLT4 cells
Test: CellTiter-Glo cell viability, 72 hours
Assay type: cell-based
Protocol: The indicated cell lines were plated in flat bottom 384-well plates (Corning® cat #3570). MOLT4 cells were plated at a density of 3,000 cells per well in 50 μL media, while OVCAR8, COV362, and Kuramochi cells were plated at a density of 750 cells per well in 50 μL media. Cells were treated the next day (except for MOLT4 cells, which were treated the same day as plating) with 0.1 μL of the indicated compounds in a four-fold dilution series using the Janus pinner. Cells were incubated with compounds for 72 hours at 37° C. 5% CO2. Anti-proliferative effects were then assessed by CellTiter-Glo® Luminescent Cell Viability Assay (Promega™ cat #G7570) according to the manufacturer's standards, measuring luminescence using an EnVision® plate-reader. IC50 values were determined using a non-linear regression curve fit in GraphPad Prism 8. N=4 biological replicates were used for each treatment condition.
MOLT4 cells were plated in a 384-well plate at 5,000 cells per well in 50 μL media (RPMI+10% FBS+1% Penn/Strep) and treated with 0.1 μL of the candidate compounds in four-fold dilution series using the Janus pinner. Cells were incubated with compounds for 72 hours at 37° C. 5% CO2. Anti-proliferative effects of these compounds were assessed 72 hours after compound addition using CellTiter-Glo® (Promega, cat #G7571). All proliferation assays were performed in biological quadruplicate. […] Effects upon cell viability for compound 13 in the MOLT4 WT cells are therefore likely driven in part by Wee1 inhibition, and in part by CRBN-mediated Wee1 degradation. […] Degradation of Wee1 with compound 21 was mediated by VHL.

SMILES: C=CCn1c(=O)c2cnc(Nc3ccc(N4CCN(CCCNc5cccc6c5C(=O)N(C5CCC(=O)NC5=O)C6=O)CC4)cc3)nc2n1-c1cccc(C(C)(C)O)n1 (stereo not drawn) [Compound 13, 4-((3-(4-(4-((2-allyl-1-(6-(2-hydroxypropan-2-yl)pyridin-2-yl)-3-oxo-2,3-dihydro-1H-pyrazolo[3,4-d]pyrimidin-6-yl)amino)phenyl)piperazin-1-yl)propyl)amino)-2-(2,6-dioxopiperidin-3-yl)isoindoline-1,3-dione]
- Rescue of anti-proliferative activity, CRBN−/− versus WT MOLT4 cells (Example 28, FIG. 3A/3B, 72-hour): ~15 fold
- Shift in cellular IC50, CRBN−/− versus parental MOLT4 cells (Example 32, FIG. 6A): approximately 6 fold
- IC50 (Homo sapiens, MOLT-4, MOLT4 CRBN−/− cells, 72 hours, CellTiter-Glo, read-out: Antiproliferative IC50): 2220 nM
